Test results as given in ChEMBL document CHEMBL4680139, “Antiproliferative activity of diarylnaphthylpyrrolidine derivative via dual target inhibition” (Eur J Med Chem, 2020).

Legend:
A549 = test: Antiproliferative activity against human A549 cells assessed as inhibition of cell growth measured after 48 hrs by SRB assay; format: functional, cell-based; conditions: A549, 48 h
[1] = Toxicity in Swiss albino mouse assessed as total bilirubin level in serum at 50 mg/kg, po administered as single dose (reference value: 0.62 +/-0.05 mg/dl); format: organism-based; conditions: in vivo
MCF7 [2] = test: Induction of cell cycle arrest in human MCF-7 cells assessed as accumulation at S phase at 2.17 uM by propidium iodide staining based flow cytometry (reference value: 6.9%); format: functional
MCF7 [3] = test: Induction of cell cycle arrest in human MCF-7 cells assessed as accumulation at G0/G1 phase at 2.17 uM by propidium iodide staining based flow cytometry (reference value: 74.5%); format: functional
MCF7 [4] = test: Antiproliferative activity against human MCF-7 cells assessed as proportion of dead cells at 6.25 ug/ml measured after 3 weeks by crystal violet staining based soft agar colony formation assay; format: functional; conditions: dose 6.25 µg/ml
[5] = Toxicity in Swiss albino mouse assessed as absolute and relative brain weight at 5 to 300 mg/kg, po administered as single dose; format: organism-based; conditions: in vivo, dose 5-300 mg/kg
MDA-MB-231 [6] = test: Induction of cell cycle arrest in human MDA-MB-231 cells assessed as accumulation at G0/G1 phase at 5.21 uM by propidium iodide staining based flow cytometry (reference value: 77.7 +/- 0.28%); format: functional
[7] = Toxicity in Swiss albino mouse assessed as RBC level in blood at 50 mg/kg, po administered as single dose (reference value: 10.56 +/- 1.22x10^6/mm3); format: organism-based; conditions: in vivo
MCF7 [8] = test: Antiproliferative activity against human MCF-7 cells assessed as proportion of live cells at 25 ug/ml measured after 3 weeks by crystal violet staining based soft agar colony formation assay (reference value: 100%); format: functional; conditions: dose 25 µg/ml
MDA-MB-231 [9] = test: Induction of apoptosis in human MDA-MB-231 cells at 10.42 uM by propidium iodide staining based flow cytometry (reference value: 2.6 +/- 0.28%); format: functional
MDA-MB-231 [10] = test: Induction of cell cycle arrest in human MDA-MB-231 cells assessed as accumulation at S phase at 2.6 uM by propidium iodide staining based flow cytometry (reference value: 11.35 +/- 0.07%); format: functional
[11] = Toxicity in Swiss albino mouse assessed as haemoglobin level in blood at 50 mg/kg, po administered as single dose (reference value: 12.05 +/-0.88 gm/dl); format: organism-based; conditions: in vivo
[12] = Toxicity in Swiss albino mouse assessed as cholesterol level in serum at 5 mg/kg, po administered as single dose (reference value: 103.62 +/-7.45 mg/dl); format: organism-based; conditions: in vivo
[13] = Toxicity in Swiss albino mouse assessed as albumin level in serum at 300 mg/kg, po administered as single dose (reference value: 0.56 +/-0.02 g/dl); format: organism-based; conditions: in vivo
MDA-MB-231 [14] = test: Induction of apoptosis in human MDA-MB-231 cells assessed as proportion of late apoptotic cells at 2.6 uM measured after 24 hrs by Annexin V-FITC/propidium iodide staining based flow cytometry (reference value: 0.5%); format: functional
MDA-MB-231 [15] = test: Induction of apoptosis in human MDA-MB-231 cells at 5.21 uM by propidium iodide staining based flow cytometry (reference value: 2.6 +/- 0.28%); format: functional
MDA-MB-231 [16] = test: Induction of apoptosis in human MDA-MB-231 cells assessed as proportion of necrotic cells at 2.6 uM measured after 24 hrs by Annexin V-FITC/propidium iodide staining based flow cytometry (reference value: 0.2%); format: functional
[17] = Toxicity in Swiss albino mouse assessed as SGPT level in serum at 5 mg/kg, po administered as single dose (reference value: 21.81 +/-2.1 U/L); format: organism-based; conditions: in vivo
[18] = Toxicity in Swiss albino mouse assessed as absolute and relative spleen weight at 5 to 300 mg/kg, po administered as single dose; format: organism-based; conditions: in vivo, dose 5-300 mg/kg
MDA-MB-231 [19] = test: Induction of cell cycle arrest in human MDA-MB-231 cells assessed as accumulation at S phase at 5.21 uM by propidium iodide staining based flow cytometry (reference value: 11.35 +/- 0.07%); format: functional
HCT-116 = test: Antiproliferative activity against human HCT-116 cells assessed as inhibition of cell growth measured after 48 hrs by SRB assay; format: functional, cell-based; conditions: HCT-116, 48 h
MCF7 [20] = test: Induction of apoptosis in human MCF-7 cells assessed as proportion of early apoptotic cells at 2.17 uM measured after 24 hrs by Annexin V- FITC/propidium iodide staining based flow cytometry (reference value: 0%); format: functional
MCF7 [21] = test: Induction of cell cycle arrest in human MCF-7 cells assessed as accumulation at G2/M phase at 8.66 uM by propidium iodide staining based flow cytometry (reference value: 15.2%); format: functional
MDA-MB-231 [22] = test: Induction of apoptosis in human MDA-MB-231 cells assessed as proportion of early apoptotic cells at 10.42 uM measured after 24 hrs by Annexin V-FITC/propidium iodide staining based flow cytometry (reference value: 0.2%); format: functional
[23] = target: DNA topoisomerase 2-alpha (Homo sapiens) (UniProt P11388); test: Inhibition of DNA-topoisomerase 2 in human MCF7 cells using kinetoplast DNA as substrate at 4.33 uM measured by ELISA; format: cell-based
MCF7 [24] = test: Induction of apoptosis in human MCF-7 cells assessed as proportion of viable cells at 4.33 uM measured after 24 hrs by Annexin V- FITC/propidium iodide staining based flow cytometry (reference value: 94.6%); format: functional
[25] = Toxicity in Swiss albino mouse assessed as haemoglobin level in blood at 5 mg/kg, po administered as single dose (reference value: 12.05 +/-0.88 gm/dl); format: organism-based; conditions: in vivo
MCF7 [26] = test: Induction of apoptosis in human MCF-7 cells assessed as proportion of necrotic cells at 2.17 uM measured after 24 hrs by Annexin V- FITC/propidium iodide staining based flow cytometry (reference value: 5.3%); format: functional
MCF7 [27] = test: Induction of apoptosis in human MCF-7 cells assessed as proportion of late apoptotic cells at 4.33 uM measured after 24 hrs by Annexin V- FITC/propidium iodide staining based flow cytometry (reference value: 0.1%); format: functional
MDA-MB-231 [28] = test: Induction of cell cycle arrest in human MDA-MB-231 cells assessed as accumulation at G2/M phase at 10.42 uM by propidium iodide staining based flow cytometry (reference value: 8.35 +/-0.07%); format: functional
[29] = Toxicity in Swiss albino mouse assessed as body weight at 300 mg/kg, po administered as single dose (reference value: 31.62 +/- 1.64 gms); format: organism-based; conditions: in vivo
[30] = Toxicity in Swiss albino mouse assessed as SGOT level in serum at 300 mg/kg, po administered as single dose (reference value: 22.12 +/-1.91 U/L); format: organism-based; conditions: in vivo
[31] = Toxicity in Swiss albino mouse assessed as ALP level in serum at 50 mg/kg, po administered as single dose (reference value: 195.8 +/-12.06 U/L); format: organism-based; conditions: in vivo
[32] = Toxicity in Swiss albino mouse assessed as total bilirubin level in serum at 300 mg/kg, po administered as single dose (reference value: 0.62 +/-0.05 mg/dl); format: organism-based; conditions: in vivo

DNA topoisomerase 2-alpha (Homo sapiens), sequence (P11388 whole entry): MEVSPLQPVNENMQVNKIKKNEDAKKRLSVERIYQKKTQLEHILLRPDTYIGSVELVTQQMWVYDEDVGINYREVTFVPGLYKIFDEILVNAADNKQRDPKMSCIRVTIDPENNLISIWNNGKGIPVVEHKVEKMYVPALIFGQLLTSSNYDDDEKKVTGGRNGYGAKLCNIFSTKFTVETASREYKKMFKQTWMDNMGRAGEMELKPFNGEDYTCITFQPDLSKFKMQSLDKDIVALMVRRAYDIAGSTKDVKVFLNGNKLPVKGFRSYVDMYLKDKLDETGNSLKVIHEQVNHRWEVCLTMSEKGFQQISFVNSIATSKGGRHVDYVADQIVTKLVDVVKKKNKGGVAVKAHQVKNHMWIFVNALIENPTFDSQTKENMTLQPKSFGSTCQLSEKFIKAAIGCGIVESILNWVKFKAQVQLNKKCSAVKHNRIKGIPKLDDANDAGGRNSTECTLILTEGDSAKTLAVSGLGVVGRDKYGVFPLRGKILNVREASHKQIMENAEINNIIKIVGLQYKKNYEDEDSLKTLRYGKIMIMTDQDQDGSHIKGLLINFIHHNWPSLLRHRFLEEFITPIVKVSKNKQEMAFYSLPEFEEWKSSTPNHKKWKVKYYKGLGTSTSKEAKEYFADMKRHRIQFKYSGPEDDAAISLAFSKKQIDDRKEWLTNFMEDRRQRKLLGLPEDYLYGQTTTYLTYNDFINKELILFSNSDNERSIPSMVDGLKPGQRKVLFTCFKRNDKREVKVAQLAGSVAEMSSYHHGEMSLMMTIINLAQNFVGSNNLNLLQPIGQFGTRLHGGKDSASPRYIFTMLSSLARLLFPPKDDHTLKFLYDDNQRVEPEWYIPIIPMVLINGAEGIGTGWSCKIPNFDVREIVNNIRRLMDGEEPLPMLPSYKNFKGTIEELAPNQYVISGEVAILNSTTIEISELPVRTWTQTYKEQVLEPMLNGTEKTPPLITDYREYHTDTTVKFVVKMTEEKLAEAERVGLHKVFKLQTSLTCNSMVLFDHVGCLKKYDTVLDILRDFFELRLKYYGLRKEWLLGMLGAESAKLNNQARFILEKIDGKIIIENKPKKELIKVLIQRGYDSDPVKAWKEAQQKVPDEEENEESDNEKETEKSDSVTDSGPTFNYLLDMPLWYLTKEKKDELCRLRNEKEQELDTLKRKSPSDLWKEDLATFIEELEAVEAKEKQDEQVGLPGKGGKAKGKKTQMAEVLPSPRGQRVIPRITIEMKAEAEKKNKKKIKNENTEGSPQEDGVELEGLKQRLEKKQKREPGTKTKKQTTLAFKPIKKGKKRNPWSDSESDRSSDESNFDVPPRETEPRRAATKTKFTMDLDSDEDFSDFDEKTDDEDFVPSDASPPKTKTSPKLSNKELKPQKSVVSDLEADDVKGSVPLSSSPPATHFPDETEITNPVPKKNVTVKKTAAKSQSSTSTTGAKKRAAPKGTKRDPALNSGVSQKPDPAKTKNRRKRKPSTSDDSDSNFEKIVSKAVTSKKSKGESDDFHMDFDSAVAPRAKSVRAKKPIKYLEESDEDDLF

## COc1ccc(C(c2ccccc2OCCN2CCCC2)c2cccc3ccccc23)c(OC)c1OC (centres undefined)
A549
  IC50: 5.85 µM
[1]
  Activity: 0.62 mg/dL
MCF7 [2]
  Activity: 10.9%
MCF7 [3]
  Activity: 74.6%
MCF7 [4]
  Activity: 29.23%
[5]
  Activity: Non-Toxic
MDA-MB-231 [6]
  Activity: 79.1%
[7]
  Activity: 9.84 million/mm3
MCF7 [8]
  Activity: 20.64%
MDA-MB-231 [9]
  Activity: 16.7%
MDA-MB-231 [10]
  Activity: 6.75%
[11]
  Activity: 9.96 g/dL
[12]
  Activity: 111.17 mg/dL
[13]
  Activity: 0.54 g/dL
MDA-MB-231 [14]
  Activity: 2%
MDA-MB-231 [15]
  Activity: 2.8%
MDA-MB-231 [16]
  Activity: 2.1%
[17]
  Activity: 21.18 U/L
[18]
  Activity: Non-Toxic
MDA-MB-231 [19]
  Activity: 7.9%
HCT-116
  IC50: 2.03 µM
MCF7 [20]
  Activity: 0%
MCF7 [21]
  Activity: 12.8%
MDA-MB-231 [22]
  Activity: 1.7%
[23]
  inhibition: 0.22%
MCF7 [24]
  Activity: 63.1%
[25]
  Activity: 11.35 g/dL
MCF7 [26]
  Activity: 5%
MCF7 [27]
  Activity: 25.8%
MDA-MB-231 [28]
  Activity: 15.05%
[29]
  Activity: 31.03 g
[30]
  Activity: 25.61 U/L
[31]
  Activity: 182.4 U/L
[32]
  Activity: 1.01 mg/dL
